Legend:
[1] = Selectivity index, ratio of IC50 for rat L6 cells to IC50 for erythrocytic stages of Plasmodium falciparum NF54; assay type: toxicity, cell-based; conditions: read-out: Ratio IC50
[2] = test system: Plasmodium falciparum; assay: Antiplasmodial activity against chloroquine-sensitive erythrocytic stage Plasmodium falciparum NF54 assessed as [3H]hypoxanthine incorporation after 48 to 72 hrs by Betaplate liquid scintillation counting; assay type: functional, organism-based
[3] = test system: L6; assay: Cytotoxicity against rat L6 cells after 72 hrs by Alamar blue assay; assay type: cell-based; conditions: L6, 72 h

Structure (SMILES)	selectivity ratio [1]	IC50 [2] [µM]	IC50 ([3]; read-out: IC50) [µM]	IC50 [3] [µM]
CC(=O)O[C@@H]1C[C@H]2C(C)(C)[C@H](O)CC[C@]2(C)[C@H]2CC[C@]3(C)C(=CC[C@H]3[C@@H]3C[C@H]([C@H](O)C(C)(C)O)OC3=O)[C@@]21C	21	2	42.4	
CC(=O)O[C@@H]1C[C@H]2C(C)(C)C(=O)C=C[C@]2(C)[C@H]2CC[C@]3(C)C(=CC[C@H]3[C@@H]3C[C@H]([C@H](O)C(C)(C)O)OC3=O)[C@@]21C	105	0.67	70.6	
CC(C)=CC(=O)O[C@H]1CC[C@]2(C)[C@H]3CC[C@]45C[C@]4(CC[C@H]5[C@@H]4C[C@H]([C@H](O)C(C)(C)O)O[C@H]4O)[C@]3(C)[C@H](O)C[C@H]2C1(C)C	4.4	1.4	6.5	
C=C(C)[C@@H]1CC=C2[C@H](CC[C@@]3(C)[C@H]([C@@H](C)CC(O)C(O)C(C)(C)O)CC[C@]23C)[C@@]1(C)CCC(=O)O (stereo partly drawn)	2.9	19.3	56.1	
COc1cc([C@@H]2c3cc4c(cc3[C@H](O)[C@H]3COC(=O)[C@H]23)OCO4)cc(OC)c1OC [PODOFILOX]				0.012
CO[C@@H]1O[C@@H]([C@H](O)C(C)(O)CO)C[C@H]1[C@@H]1CC[C@]23C[C@]12CC[C@@H]1[C@@]2(C)CC[C@H](OC(=O)C=C(C)C)C(C)(C)[C@@H]2C[C@@H](O)[C@]13C (stereo partly drawn)	9	1.3	11.9	
CC(=O)O[C@@H]1C[C@H]2C(C)(C)C(=O)C=C[C@]2(C)[C@H]2CC[C@]3(C)C(=CC[C@H]3[C@@H]3C[C@H]([C@@H]4OC4(C)C)OC3=O)[C@@]21C	12.1	0.44	5.3	
CC(=O)O[C@@H]1CC[C@]2(C)[C@H]3CC[C@]4(C)C(=CC[C@H]4[C@@H]4C[C@H]([C@H](O)C(C)(C)O)OC4=O)[C@]3(C)[C@H](OC(C)=O)C[C@H]2C1(C)C	12.7	0.87	11	
CC(C)(O)[C@H](O)[C@H]1C[C@@H]([C@@H]2CC=C3[C@]4(C)[C@H](O)C[C@H]5C(C)(C)C(=O)C=C[C@]5(C)[C@H]4CC[C@]32C)C(=O)O1	25.2	1.3	32.3	
CC(C)=CC(=O)O[C@H]1CC[C@]2(C)[C@H]3CC[C@]45C[C@]4(CC[C@H]5[C@@H]4C[C@H]([C@@H]5O[C@@]5(C)CO)O[C@H]4O)[C@]3(C)[C@H](O)C[C@H]2C1(C)C	6.8	1.3	8.6	

Reference: ChEMBL document CHEMBL3580552, “Antiplasmodial and Cytotoxic Triterpenoids from the Bark of the Cameroonian Medicinal Plant Entandrophragma congoënse” (J Nat Prod, 2015)
